Measurements from US11992497B2 (priority 2021, dated 2024).

Tests used:
[1] = PK study of CBG, Compound 1 and Compound 2, PO or IP; type: in vivo, male Sprague Dawley rats; details: CBG 30 mg/kg PO and IP; Compound 1 31.5 mg/kg PO; Compound 2 32.7 mg/kg PO
Procedure: This study evaluated the pharmacokinetics of (E)-2-(3,7-dimethylocta-2,6-dien-1-yl)-3-methoxy-5-pentylphenol (1) and (E)-2-(3,7-dimethylocta-2,6-dien-1-yl)-1,3-dimethoxy-5-pentylbenzene (2) following oral (PO) or intraperitoneal (IP) administration to male Sprague Dawley rats.
For the oral formulation the test article was added to the appropriate amount of Maisine and stirred until uniform. Next Labrasol was added to the formulation and allowed to stir until uniform. Finally, water will be slowly added to the stirring formulation to achieve the final volume.
For the IP formulation the test article was added to the appropriate amount of ethanol and stirred until uniform. Next, the appropriate amount of tween-20 was added to the stirred formulation. Finally, the appropriate amount of saline was slowly added to the stirred formulation to achieve the final volume.
Animals were fasted the evening prior to dosing with food returned at 4 h postdose, and the animals weighed on the morning of dose administration.
IP doses were administered via injection to the intraperitoneal region. PO doses were delivered into the stomach via syringe and gavage tube.
Blood was collected from via direct jugular stick or from the tail vein. Blood samples were kept on ice until being centrifuged at 3200 RPM for 10 minutes at ˜5° C. within 1 h of collection. Plasma was split into 2 cryovials in approximately equal volumes (0.05 mLs) and stored at −20° C.±5° C. until shipment.

[2] = molecular target: T1, UGT2B15 (Homo sapiens, UniProt P54855); assay: UGT reaction phenotyping, recombinant Supersomes; details: recombinant enzyme, pH 7.4
T1 sequence (P54855 24-530): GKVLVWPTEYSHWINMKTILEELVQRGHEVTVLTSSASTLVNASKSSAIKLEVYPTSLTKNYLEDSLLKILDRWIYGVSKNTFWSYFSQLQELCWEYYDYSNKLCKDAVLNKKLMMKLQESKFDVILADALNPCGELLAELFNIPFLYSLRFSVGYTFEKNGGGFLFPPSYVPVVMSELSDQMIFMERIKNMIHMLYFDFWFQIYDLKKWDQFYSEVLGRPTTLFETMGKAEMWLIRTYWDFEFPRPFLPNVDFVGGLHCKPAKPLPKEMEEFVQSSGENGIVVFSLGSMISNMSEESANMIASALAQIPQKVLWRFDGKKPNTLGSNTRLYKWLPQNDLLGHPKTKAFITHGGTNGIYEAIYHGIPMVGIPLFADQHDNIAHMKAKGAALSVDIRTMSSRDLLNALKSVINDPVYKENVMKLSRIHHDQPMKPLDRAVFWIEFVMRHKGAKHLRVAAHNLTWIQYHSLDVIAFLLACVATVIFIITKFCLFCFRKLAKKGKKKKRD
Procedure: (§1) Experimental Summary: UGT Reaction Phenotyping (7 Isoforms).
(§2) Experimental Procedure: cDNA expressed human UGT enzyme preparations (Supersomes) supplied by BD Biosciences were obtained and stored at −80° C. prior to use. The specific isoforms were chosen by the performing laboratory based on published guidelines. They are considered the clinically relevant of the UGT isoforms (E. Kasteel et al. Human variability in isoform-specific UDP-glucuronosyltransferases: markers of acute and chronic exposure, polymorphisms and uncertainty factors. Arch Toxicol. 2020; 94(8): 2637-2661)
(§3) Supersomes in 0.1 M Tris buffer pH 7.4, alamethicin (44.6 μg/mL) and test compound (final concentration of 5 μM; final DMSO concentration ≤0.1%) were pre-incubated at 37° C. prior to the addition of UDGPA (final concentration 2 mM) to initiate the reaction. Incubations were also performed using control Supersomes (no UGT enzymes present) to reveal any non-enzymatic degradation. Compounds known to be metabolized specifically by each UGT isoform were used as control compounds (7-hydroxy-4-trifluoromethylcoumarin, all but UGT1A4, or trifluoperazine for UGT1A4).
(§4) CBG or Compound 1 were incubated in duplicate for 0, 10, 20, 40 and 60 min with each isoform. The reactions were stopped by the addition of methanol containing an analytical internal standard at the time points specified in the table above. Stopped reactions were kept on ice for at least ten minutes and the samples were centrifuged to remove precipitated protein. Supernatants were analyzed by LC-MS/MS methodology developed by the performing laboratory to quantitate the parent remaining.
(§5) The change in CBG concentration were used to calculate the Half life (t1/2 in min) and the intrinsic clearance ([…]) as shown in the following table (S. C, Khojasteh et.al., Drug Metabolism and Pharmacokinetics Quick Guide, Springer, NY, 2011), Intrinsic Clearance (CIint) is a measure of the ability of hepatocytes to eliminate drug irrespective other factors such as blood flow or protein binding. The calculations were the same as those used in Example 3A.

[3] = molecular target: T2, UGT1A6 (Homo sapiens, UniProt P19224); assay: UGT reaction phenotyping, recombinant Supersomes; details: recombinant enzyme, pH 7.4
T2 sequence (P19224 27-532): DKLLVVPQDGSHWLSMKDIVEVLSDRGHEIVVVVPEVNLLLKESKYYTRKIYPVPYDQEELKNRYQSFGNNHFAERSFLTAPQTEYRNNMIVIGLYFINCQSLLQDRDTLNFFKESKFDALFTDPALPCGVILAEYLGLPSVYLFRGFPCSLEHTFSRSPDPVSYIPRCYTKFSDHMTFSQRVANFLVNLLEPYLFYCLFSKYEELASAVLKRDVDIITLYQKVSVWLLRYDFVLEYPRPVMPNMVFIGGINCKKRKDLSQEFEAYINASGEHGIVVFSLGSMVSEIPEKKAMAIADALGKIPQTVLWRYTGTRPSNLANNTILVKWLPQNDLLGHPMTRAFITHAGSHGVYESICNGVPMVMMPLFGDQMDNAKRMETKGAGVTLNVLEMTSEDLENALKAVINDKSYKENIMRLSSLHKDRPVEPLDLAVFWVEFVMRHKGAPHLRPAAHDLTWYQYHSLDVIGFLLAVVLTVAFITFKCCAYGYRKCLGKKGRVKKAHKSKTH
Procedure: as §1, §2, §3, §4, §5

SMILES	glucuronidation / glucuronide formation in plasma (in words) [1]	half-life at 1 µM [2]	microsomal CLint at 1 µM [2]	half-life at 1 µM [3]	microsomal CLint at 1 µM [3]
CCCCCc1cc(O)c(C/C=C(\C)CCC=C(C)C)c(OC)c1 [Compound 1, (E)-2-(3,7-dimethylocta-2,6-dien-1-yl)-3-methoxy-5-pentylphenol]	significantly reduced levels of glucuronidation compared to CBG	57.2 min	24.2 µL/min/mg	> 240 min	< 2.89 µL/min/mg
CCCCCc1cc(OC)c(C/C=C(\C)CCC=C(C)C)c(OC)c1 [Compound 2, (E)-2-(3,7-dimethylocta-2,6-dien-1-yl)-1,3-dimethoxy-5-pentylbenzene]	completely blocked glucuronide formation	–	–	–	–
CCCCCc1cc(O)c(C/C=C(\C)CCC=C(C)C)c(O)c1 [CBG, cannabigerol]	converted by glucuronidation to CBG-glucoronide	47.6 min	29.1 µL/min/mg	95 min	14.6 µL/min/mg
O=c1cc(C(F)(F)F)c2ccc(O)cc2o1 [7-OH4trifluoromethylcoumarin, 7-hydroxy-4-trifluoromethylcoumarin]	–	24.9 min	55.8 µL/min/mg	6.41 min	216 µL/min/mg
